Source: article PMC4725312 (Journal of biomolecular screening, 2010)

Target: TRPM7 (Mus musculus, UniProt Q923J1)
Type: cell-based

Sequence of TRPM7 (Q923J1 whole entry): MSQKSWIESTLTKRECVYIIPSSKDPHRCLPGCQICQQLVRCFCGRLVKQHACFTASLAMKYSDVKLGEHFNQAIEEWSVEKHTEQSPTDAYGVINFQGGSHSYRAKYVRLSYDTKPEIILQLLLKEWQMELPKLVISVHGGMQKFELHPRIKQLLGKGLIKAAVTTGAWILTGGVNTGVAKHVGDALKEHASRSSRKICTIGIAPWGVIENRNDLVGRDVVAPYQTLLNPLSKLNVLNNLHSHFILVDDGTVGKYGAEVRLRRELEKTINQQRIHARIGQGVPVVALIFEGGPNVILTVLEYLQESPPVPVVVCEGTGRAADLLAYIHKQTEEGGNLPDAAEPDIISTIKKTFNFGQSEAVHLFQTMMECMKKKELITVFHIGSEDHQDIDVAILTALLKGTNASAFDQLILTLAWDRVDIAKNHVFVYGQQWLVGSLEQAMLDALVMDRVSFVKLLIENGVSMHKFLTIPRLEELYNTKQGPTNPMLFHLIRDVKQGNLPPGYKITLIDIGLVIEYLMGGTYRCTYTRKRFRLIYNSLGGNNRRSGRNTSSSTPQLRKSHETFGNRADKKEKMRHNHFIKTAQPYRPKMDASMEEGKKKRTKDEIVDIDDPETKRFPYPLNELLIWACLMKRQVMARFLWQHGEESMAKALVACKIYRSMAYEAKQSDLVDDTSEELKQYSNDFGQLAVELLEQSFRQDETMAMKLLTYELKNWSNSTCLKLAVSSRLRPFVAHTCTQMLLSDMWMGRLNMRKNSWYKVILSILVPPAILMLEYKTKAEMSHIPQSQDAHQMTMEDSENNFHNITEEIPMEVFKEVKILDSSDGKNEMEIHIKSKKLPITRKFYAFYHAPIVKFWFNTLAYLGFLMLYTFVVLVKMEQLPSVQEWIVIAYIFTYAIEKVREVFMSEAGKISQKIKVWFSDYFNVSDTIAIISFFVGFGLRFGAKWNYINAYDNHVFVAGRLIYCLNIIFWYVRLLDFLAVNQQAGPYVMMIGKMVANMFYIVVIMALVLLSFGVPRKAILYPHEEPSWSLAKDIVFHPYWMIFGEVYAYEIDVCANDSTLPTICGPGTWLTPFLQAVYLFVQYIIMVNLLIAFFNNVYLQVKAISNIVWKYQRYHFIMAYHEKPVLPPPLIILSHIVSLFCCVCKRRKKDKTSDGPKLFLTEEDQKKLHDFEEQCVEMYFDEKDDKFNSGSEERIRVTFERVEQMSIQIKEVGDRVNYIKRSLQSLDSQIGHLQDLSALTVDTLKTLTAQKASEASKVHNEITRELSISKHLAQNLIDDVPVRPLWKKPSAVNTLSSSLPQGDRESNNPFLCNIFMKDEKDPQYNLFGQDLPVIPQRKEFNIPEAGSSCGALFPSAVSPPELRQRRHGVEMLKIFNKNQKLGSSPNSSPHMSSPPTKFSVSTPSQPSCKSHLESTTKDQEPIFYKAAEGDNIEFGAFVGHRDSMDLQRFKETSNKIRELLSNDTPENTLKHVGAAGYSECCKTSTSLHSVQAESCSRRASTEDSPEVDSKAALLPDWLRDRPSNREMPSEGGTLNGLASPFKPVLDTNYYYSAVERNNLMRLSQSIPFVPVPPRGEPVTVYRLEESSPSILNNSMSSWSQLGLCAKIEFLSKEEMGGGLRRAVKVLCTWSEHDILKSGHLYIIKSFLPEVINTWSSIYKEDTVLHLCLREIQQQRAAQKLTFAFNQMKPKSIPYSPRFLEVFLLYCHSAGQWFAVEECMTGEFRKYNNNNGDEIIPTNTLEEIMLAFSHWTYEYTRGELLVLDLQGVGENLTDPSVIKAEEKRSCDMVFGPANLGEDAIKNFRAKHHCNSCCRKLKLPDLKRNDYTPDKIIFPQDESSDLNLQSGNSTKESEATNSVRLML

## NCCOB(c1ccccc1)c1ccccc1 [2-APB]
  IC50: 30 µM
